Laboratory results reported in publication PMC3510080, “Identification of Compounds with Anti-Proliferative Activity against Trypanosoma brucei brucei Strain 427 by a Whole Cell Viability Based HTS Campaign” (PLoS Neglected Tropical Diseases, 2012).
Like-named read-outs stand apart in the source and are kept apart here.

Legend:
mammalian cell lines = details: cited from earlier work
HEK293 cells = test: HEK293 Alamar Blue viability estimation assay; format: cell-based, human; details: pentamidine 1 µM, diminazene 40 µM
Protocol: (§1) T.b. brucei lister 427 cells were maintained in log phase growth in 25 cm^2 tissue culture flasks (Corning, NY, USA) by sub-culturing at either 24 or 48 hour intervals. Cells were grown in HMI-9 medium, supplemented with 10% fetal calf serum (FCS) and 100 IU/ml penicillin/streptomycin (Invitrogen, Carlsbad, California, USA) with incubation at 5% CO2 at 37°C in humidified conditions. HEK293 cells were maintained in high glucose DMEM with L-glutamine, supplemented with 1× non-essential amino acids (NEAA; Invitrogen, USA) and 1 mM sodium pyruvate. Growth conditions were in 5% CO2 at 37°C, under humidified conditions.
Cells at 80% confluence were harvested and diluted in growth medium (high glucose DMEM supplemented with 10% FCS) to 7.27×10^4 cells/ml. Under sterile conditions, 55 µl of diluted cells per well were added to a black, clear bottomed 384-well lidded plate (BD Biosciences, Bedford, MA, USA) with a Multidrop liquid handler (Thermo Scientific, Barrington, IL, USA). Incubation times, compound additions and plate read were as per the trypanosome viability assay, with the exception that Alamar Blue was diluted in HEK293 growth media before addition, and incubation of Alamar Blue at 37°C, in 5% CO2, was for 4 hours, followed by incubation at room temperature for 20 hours. The activity of compounds against HEK293 cells was used to calculate the SI of mammalian to T.b. brucei cells. The control compound for HEK293 cells was puromycin (Calbiochem, USA).
Compounds identified from primary screening were retested against both T.b. brucei and HEK293 cells in duplicate and at varying concentrations to obtain a dose-response curve. Thus, a 5 µl sample of fresh compound stock solution (5 mM in DMSO) was cherry picked into 384-well plates and diluted 1∶10 in dilution medium (high glucose DMEM without FCS). Serial dilutions of these samples were then prepared in the same media by a Minitrak robotic liquid handler (Perkin Elmer, USA). […] A screening dose of 10.4 µM was included in the dilution series to enable reconfirmation of primary screening T.b. brucei activity.
The DMSO working concentration in the serial dilutions was maintained at 5%, giving a final assay concentration of 0.42% DMSO, except for the 41.7 µM test compound solution, where as previously stated the corresponding DMSO concentration was 0.83% v/v. […] Therefore the 41.7 µM test compound sample with 0.83% v/v DMSO was not used in the T.b. brucei assay and thus the top test compound concentration in this assay was 20.8 µM.
Compound activity in the retest campaign was calculated as percentage inhibition in relation to positive and negative controls, in the same manner as the primary screening campaign. The positive controls, pentamidine (2 µM final concentration) for T.b. brucei and puromycin (8 µM final concentration) for HEK293, were both screened in whole 384-well control plates. Whole 384-well plate controls were included after every batch of 20 compound plates, and were comprised of half a plate of negative control and half a plate of positive control. The negative control was the vehicle, […]. The negative control was also included in column 24 of each compound assay plate to determine signal variation from plate to plate and to calculate compound activity. The exception was the 41.7 µM compound dose used in the HEK293 assay. In these plates column 24 contained 0.83% DMSO as a negative control. A separate 384-well plate containing a 13 point dose-response of the reference compounds puromycin, pentamidine and diminazene, in triplicate, was also included per 20 compound test plate batch to estimate assay sensitivity.
These compounds were retested as in dose for N of three replicates, as described above for both T.b. brucei and HEK293.

[1] = test system: T.b. brucei bloodstream form lister 427; test: T.b. brucei Alamar Blue viability estimation assay (384-well HTS, retest and rescreen); format: cell-based, Trypanosoma brucei brucei; details: for IC50: Trypanosoma brucei
Protocol: as §1
All reagent and cell additions were made with a Multidrop liquid handler (Thermo Scientific, Newington, NH, USA) under sterile conditions. Fifty-five microliters of 2000 cells/mL of T.b. brucei in HMI-9 medium were added to a black, clear-bottomed 384-well lidded plate (BD Biosciences, Franklin Lanes, NJ, USA). Cells were incubated for 24 hours at 37°C in an atmosphere of 5% CO2 before addition of 5 µl of compounds/DMSO for control wells. Compounds suspended in 100% DMSO or 100% DMSO as controls were pre-diluted 1∶21 in high glucose DMEM without FCS by using a Minitrack robotic liquid handler (PerkinElmer, Waltham, MA, USA). Five microliters of diluted sample was added to the plate to give a final DMSO concentration of 0.417% in the assay. Cells were incubated for an additional 48 hours at 37°C. Ten microliters of 70% Alamar Blue (Biosource, Bethesda, MD, USA) was added to each well (diluted in HMI-9 medium supplemented with 10% FCS) to a final concentration of 10% in the assay. The plate was incubated for two hours under the same conditions, then incubated for 22 hours in the dark at room temperature. Wells were read at 535 nm (excitation) and 590 nm (emission) wavelengths on a Victor II Wallac plate reader (PerkinElmer, USA). Specific dilutions are explained further in the primary and retest assay methodology. Reference drugs used in the assay were pentamidine (Sigma-Aldrich, St Louis, MO, USA), diminazene aceturate (Sigma-Aldrich, USA) and puromycin (Calbiochem, San Deigo, CA, USA). Pentamidine is used to treat patients with HAT and diminazene is a veterinary drug used against T.b. brucei to combat infections in cattle.
Primary screening of the library, consisting of 87,296 compounds in two hundred and forty eight 384-well plates, was undertaken in single point against T.b. brucei. Stock solutions consisted of test compound at a concentration of 5 mM in 100% DMSO. One µl of each compound stock solution was diluted by the addition of 40 µl of dilution medium (high glucose DMEM without FCS) by a multidrop liquid handler (Thermo Scientific, USA). A 5 µl sample of this diluted solution was then added to the trypanosome assay plate. The final concentration of test compound in the assay was […] and that of DMSO was 0.42% v/v. Compounds were screened over a total of 11 days, at an average of 80 plates per day, taking into consideration that the assay incubation was 3 days total. Test compounds were added to plates in batches of 20 at two hour intervals, to maintain the timing of additions and reads.
Compound activity was calculated as the percentage inhibition in relation to positive and negative controls. […] These in-plate negative controls were used in an effort to normalise compound activity in relation to any plate to plate variation in the assay signal. A whole 384-well control plate was included in each day's screening, one per 20 compound plates containing half a plate of 2 µM pentamidine for the positive assay control, and half a plate of 0.42% v/v DMSO as a negative control. The positive assay control was used to calculate compound activity for batches of 20 compound plates. As well providing the positive control data, these whole plate controls were used for the calculation of the Z' to measure the reproducibility of the assay.

N=C(N)c1ccc(/N=N/Nc2ccc(C(=N)N)cc2)cc1 [Diminazene, diminazene aceturate, reference compound]
reported SI (mammalian cell lines): 692 | activity in the HEK293 assay at the doses screened, rescreening (HEK293 cells): neither pentamidine nor diminazene displayed activity | activity in the HEK293 assay at the doses screened, retest campaign (HEK293 cells): Neither pentamidine nor diminazene displayed activity | Selectivity Index T.B ([1]; HEK293 IC50 / T.b. brucei IC50, > if less than 50% activity at 75.8 µM in HEK293): >330 | IC50 ([1]; 13 control plates, triplicate dose-response, read-out: IC50 of reference compounds, primary screening campaign): 0.0654 µM | IC50 ([1]; during rescreening of resynthesized compounds, read-out: Reference Compound Activity T.B (IC50)): 0.121 ± 0.00904 µM | IC50 ([1]; reference compounds, read-out: IC50 against T.b. brucei, retest screening campaign): 0.0295 ± 0.0058 µM
